Measurements: US20030087753A1, “System for microbial control of a fluid” (priority 2001, published 2003)

What was measured:
[1] = Adsorption and release of various antibiotics on ultra-stable zeolite Y (USY); assay type: physicochemical; details: for Amount antibiotic in 20 mg zeolite/ml: USY suspended to 20 mg/ml; for Release concentration of antibiotic: dried USY suspended to 20 mg/ml in buffer; for Amount adsorbed antibiotic/mg zeolite: ultra-stable zeolite Y (USY), amount calculated
Experimental: This example illustrates adsorption and release of various antibiotics. Ultra-stable zeolite Y (USY) was incubated with various antibiotics and the amounts absorbed to the zeolite were calculated. Then the zeolite was dried and suspended to 20 mg/ml in buffer and the concentrations of released antibiotics in the solutions were determined.

[2] = Release of cephalothin from ultra-stable zeolite Y (USY) at pH 2.5 and pH 8.0; assay type: physicochemical; details: 20 mg/ml USY; 10 mM phosphate buffer pH 8.0 after 10 mM glycin pH 2.5
Experimental: This example illustrates release of cephalothin from ultra-stable zeolite Y (USY) and is described with reference to the diagram in FIG. 10.
Ultra-stable zeolite Y (USY) was incubated with the antibiotic cephalothin 5 mg/ml after which the zeolite was sucked dry and further dried in warm closet. Zeolite with adsorbed cephalothin was suspended repeatedly to 20 mg/ml in 10 mM glycin pH 2.5 (▪) and the concentration of cephalothin in the solutions was determined by absorbency measurement at 260 nm. Then the zeolite was suspended in 10 mM phosphate buffer pH 8.0 (●).

[3] = system: Staphylococcus aureus (ATCC 6538); experiment: Growth inhibition of Staphylococcus aureus by m-cresol adsorbed on zeolite USY (Eur. Pharm. efficacy of antimicrobial preservation); assay type: cell-based; details: 5 mg m-cresol/ml dissolved in water, positive control
Experimental: This example illustrates growth inhibition of Staphylococcus aureus (ATCC 6538), FU ml-1) after incubation with m-cresol adsorbed on zeolite. Test according to Eur. Pharm. nd Ed. VIII 14 (1992). Efficacy of antimicrobial preservation.
Ultra-stable zeolite Y (USY, 63-125 μm particles) was incubated with m-cresol […] after which the zeolite was sucked dry and further dried in warm closet overnight. Zeolite with adsorbed m-cresol was then suspended in PBS and was incubated with Staphylococcus aureus at 37° C. The concentration of m-cresol in the solution after the suspension of zeolite was 0.14 mg/ml.

Compound | Amount antibiotic in 20 mg zeolite/ml [1] [mg/mL] | Release concentration of antibiotic [1] [µg/mL] | Amount adsorbed antibiotic/mg zeolite [1] [mg] | further results
CC1(C)S[C@@H]2[C@H](NC(=O)[C@H](N)c3ccccc3)C(=O)N2[C@H]1C(=O)O [Ampicilin] | 2.8 | 400 | 0.14 | –
CC(=O)OCC1=C(C(=O)O)N2C(=O)[C@@H](NC(=O)Cc3cccs3)[C@H]2SC1 [Cephalothin] | 4.2 | 4.6 | 0.21 | release of cephalothin from the zeolite on change of pH [2]: increased release
O=C(N[C@H](CO)[C@H](O)c1ccc([N+](=O)[O-])cc1)C(Cl)Cl [Chloramphemicol] | 2.5 | 7 | 0.125 | –
Cc1cccc(O)c1 [Free m-cresol, m-cresol] | – | – | – | CFU/ml ([3]; incubation time 0 h): 5.9 × 10^6 CFU/ml; CFU/ml ([3]; incubation time 2 h): 1.2 × 10^2 CFU/ml; CFU/ml ([3]; incubation time 4 h): 24 CFU/ml; CFU/ml ([3]; incubation time 8 h): 3 CFU/ml; CFU/ml ([3]; incubation time 24 h): 0 CFU/ml; CFU/ml ([3]; incubation time 48 h): 0 CFU/ml
[H]/N=C(/N)N[C@H]1[C@H](O)[C@@H](O)[C@H](O[C@@H]2O[C@@H](C)[C@](O)(C=O)[C@H]2O[C@@H]2O[C@@H](CO)[C@H](O)[C@@H](O)[C@@H]2NC)[C@@H](N/C(N)=N\[H])[C@@H]1O [Streptomycin] | 9.6 | 4800 | 0.48 | –
CN(C)[C@@H]1C(=O)C(C(N)=O)=C(O)[C@@]2(O)C(=O)C3=C(O)c4c(O)cccc4[C@@](C)(O)[C@H]3C[C@@H]12 [Tetracyclin] | 1.8 | 220 | 0.09 | –
Gentamycin | 3.6 | – | 0.18 | –
